Measured values as given in US20200017496A1 (priority 2017, published 2020).
Read-outs that look alike come from different tables or passages of the source.

Assays:
Assay in all cases: MIC of compounds alone and combined with antibacterials, broth microdilution (CLSI)
Format in all cases: cell-based
[1] = system: Escherichia coli (ECO) isolates; conditions: Escherichia coli
Experimental: (§1) Method 2: MIC of Compounds Alone and Combined with Antibacterials Against Bacterial Isolates.
(§2) Compounds of the present invention were assessed against genotyped bacterial strains (Table 3, 4) alone or in combination with an antibacterial (Table 2). […] Log phase bacterial suspensions were adjusted to a final density of 5·10^5 CFU/mL in cation-adjusted Mueller-Hinton broth (ca-MHB; Becton-Dickinson and Company) and added to each well (98 μL). Microplates were incubated for 16-20 h at 35° C. in ambient air. The MIC of the compounds was defined as the lowest concentration of said compounds that prevented bacterial growth as read by visual inspection. The MIC of ATB at each compound concentration was defined as the lowest concentration of ATB that prevented bacterial growth as read by visual inspection.

[2] = system: Salmonella typhimurium (STY) isolates; conditions: for MIC: Salmonella enterica, TYPHIMURIUM, strain STY S3371 (OXA-1)
Experimental: as §1, §2

[3] = system: Enterobacter cloacae (ECL) isolates; conditions: for MIC: Enterobacter cloacae
Experimental: as §1, §2

CC1(C)S[C@@H]2[C@H](NC(=O)[C@H](N)c3ccc(O)cc3)C(=O)N2[C@H]1C(=O)O [AMX, Amoxicillin]
MIC ([1]; strain ECO 260096 (CTX-M-132), CLA @ 4 μg/ml+ ATB): 4 µg/mL | MIC ([1]; strain ECO 260304 (CTX-M-15), CLA @ 4 μg/ml+ ATB): 4 µg/mL | MIC ([1]; strain ECO 260508 (TEM-1, CTX-M-15, OXA-1), CLA @ 4 μg/ml+ ATB): 64 µg/mL | MIC ([1]; strain ECO RGN238 (OXA-1), ATB alone): > 1020 µg/mL | MIC ([1]; strain ECO UFR207 (CTX-M-15), CLA @ 4 μg/ml+ ATB): 32 µg/mL | MIC ([1]; strain ECO UFR209 (TEM-1, CTX-M-15), CLA @ 4 μg/ml+ ATB): 32 µg/mL | MIC ([1]; strain ECO UFR210 (SHV-12), CLA @ 4 μg/ml+ ATB): 8 µg/mL | MIC ([1]; strain ECO UFR211 (TEM-24), CLA @ 4 μg/ml+ ATB): 8 µg/mL | MIC ([1]; strain ECO UFR218 (TEM-1, SHV-1, CTX-M-15), CLA @ 4 μg/ml+ ATB): 32 µg/mL | MIC ATB in combination [2]: 128 µg/mL | MIC ([2]; ATB alone): > 256 µg/mL | MIC ([2]; CLA @ 4 μg/ml+ ATB): 128 µg/mL | MIC ATB in combination [3]: 128 µg/mL | MIC ATB in combination ([3]; ECL 190408, AF1 @ 4 μg/mL): 8 µg/mL | MIC ATB in combination ([3]; ECL 200138, AF1 @ 4 μg/mL): 256 µg/mL | MIC ATB in combination ([3]; ECL 260033, AF1 @ 4 μg/mL): 256 µg/mL | MIC ATB in combination ([3]; ECL 260253, AF1 @ 4 μg/mL): 256 µg/mL | MIC ATB in combination ([3]; ECL 260323, AF1 @ 4 μg/mL): 256 µg/mL | MIC ATB in combination ([3]; ECL UFR13, AF1 @ 4 μg/mL): 256 µg/mL | MIC ATB in combination ([3]; ECL UFR70, AF1 @ 4 μg/mL): 64 µg/mL | MIC ATB in combination ([3]; ECL UFR85, AF1 @ 4 μg/mL): 256 µg/mL | MIC ATB in combination ([3]; ECL UFR194, AF1 @ 4 μg/mL): 256 µg/mL | MIC ATB in combination ([3]; ECL UFR200, AF1 @ 4 μg/mL): 256 µg/mL | MIC ([3]; ATB alone, strain ECL UFR197 (TEM-1, CTX-M-15, OXA-1, OXA-48)): > 128 µg/mL | MIC ([3]; ATB alone, strain ECL UFR198 (TEM-1, SHV-12, CTX-M-15, DHA-1, OXA-1, OXA-48)): > 128 µg/mL | MIC ([3]; ATB combined with CLA @ 4 μg/ml, strain ECL UFR197 (TEM-1, CTX-M-15, OXA-1, OXA-48)): > 128 µg/mL | MIC ([3]; ATB combined with CLA @ 4 μg/ml, strain ECL UFR198 (TEM-1, SHV-12, CTX-M-15, DHA-1, OXA-1, OXA-48)): > 128 µg/mL | MIC ([3]; strain ECL 2185D (OXA-163), ATB alone): > 256 µg/mL | MIC ([3]; strain ECL 2185D (OXA-163), CLA @ 4 μg/ml+ ATB): > 128 µg/mL | MIC ([3]; strain ECL 190310 (AmpC), ATB alone): > 256 µg/mL | MIC ([3]; strain ECL 190310 (AmpC), CLA @ 4 μg/ml+ ATB): > 128 µg/mL | MIC ([3]; strain ECL 190408 (TEM-1, CTX-M-15, OXA-1), ATB alone): > 256 µg/mL | MIC ([3]; strain ECL 190408 (TEM-1, CTX-M-15, OXA-1), CLA @ 4 μg/ml+ ATB): > 128 µg/mL | MIC ([3]; strain ECL 200138 (AmpC), ATB alone): > 256 µg/mL | MIC ([3]; strain ECL 200138 (AmpC), CLA @ 4 μg/ml+ ATB): > 128 µg/mL | MIC ([3]; strain ECL 200322 (TEM-1, CTX-M-15, OXA-1), ATB alone): > 256 µg/mL | MIC ([3]; strain ECL 200322 (TEM-1, CTX-M-15, OXA-1), CLA @ 4 μg/ml+ ATB): > 128 µg/mL | MIC ([3]; strain ECL 260033 (AmpC), ATB alone): > 256 µg/mL | MIC ([3]; strain ECL 260033 (AmpC), CLA @ 4 μg/ml+ ATB): > 128 µg/mL | MIC ([3]; strain ECL 260253 (TEM-1, KPC-3), ATB alone): > 256 µg/mL | MIC ([3]; strain ECL 260253 (TEM-1, KPC-3), CLA @ 4 μg/ml+ ATB): > 128 µg/mL | MIC ([3]; strain ECL 260323 (AmpC), ATB alone): > 256 µg/mL | MIC ([3]; strain ECL 260323 (AmpC), CLA @ 4 μg/ml+ ATB): > 128 µg/mL | MIC ([3]; strain ECL 260508 (TEM-1, CTX-M-15), ATB alone): > 256 µg/mL | MIC ([3]; strain ECL 260508 (TEM-1, CTX-M-15), CLA @ 4 μg/ml+ ATB): > 128 µg/mL | MIC ([3]; strain ECL NEM146383 (AmpC), ATB alone): > 256 µg/mL | MIC ([3]; strain ECL NEM146383 (AmpC), CLA @ 4 μg/ml+ ATB): > 128 µg/mL | MIC ([3]; strain ECL P99 (AmpC), ATB alone, read-out: MIC): > 1020 µg/mL | MIC ([3]; strain ECL P99 (AmpC), CLA @ 4 μg/ml+ ATB): > 512 µg/mL | MIC ([3]; strain ECL UFR12 (CTX-M-9, OXA-48), ATB alone): > 256 µg/mL | MIC ([3]; strain ECL UFR12 (CTX-M-9, OXA-48), CLA @ 4 μg/ml+ ATB): > 128 µg/mL | MIC ([3]; strain ECL UFR13 (TEM-1, SHV-12, CTX-M-9, OXA-48), ATB alone): > 256 µg/mL | MIC ([3]; strain ECL UFR13 (TEM-1, SHV-12, CTX-M-9, OXA-48), CLA @ 4 μg/ml+ ATB): > 128 µg/mL | MIC ([3]; strain ECL UFR14 (TEM-1, SHV-12, CTX-M-15, DHA-1, OXA-1, OXA-48), ATB alone): > 256 µg/mL | MIC ([3]; strain ECL UFR14 (TEM-1, SHV-12, CTX-M-15, DHA-1, OXA-1, OXA-48), CLA @ 4 μg/ml+ ATB): > 128 µg/mL | MIC ([3]; strain ECL UFR60 (TEM-1, CTX-M-15, KPC-2), ATB alone): > 256 µg/mL | MIC ([3]; strain ECL UFR60 (TEM-1, CTX-M-15, KPC-2), CLA @ 4 μg/ml+ ATB): > 128 µg/mL | MIC ([3]; strain ECL UFR70 (TEM-1, CTX-M-15, CMY-2, OXA-1, Porin loss), ATB alone): > 256 µg/mL | MIC ([3]; strain ECL UFR70 (TEM-1, CTX-M-15, CMY-2, OXA-1, Porin loss), CLA @ 4 μg/ml+ ATB): > 128 µg/mL | MIC ([3]; strain ECL UFR84 (TEM-1, AmpC, OXA-1), ATB alone): > 256 µg/mL | MIC ([3]; strain ECL UFR84 (TEM-1, AmpC, OXA-1), CLA @ 4 μg/ml+ ATB): > 128 µg/mL | MIC ([3]; strain ECL UFR85 (TEM-1, CTX-M-15, AmpC), ATB alone): > 256 µg/mL | MIC ([3]; strain ECL UFR85 (TEM-1, CTX-M-15, AmpC), CLA @ 4 μg/ml+ ATB): > 128 µg/mL | MIC ([3]; strain ECL UFR194 (OXA-48), ATB alone): > 128 µg/mL | MIC ([3]; strain ECL UFR194 (OXA-48), CLA @ 4 μg/ml+ ATB): > 128 µg/mL | MIC ([3]; strain ECL UFR195 (TEM-1, CTX-M-15, OXA-1, OXA-48), ATB alone): > 128 µg/mL | MIC ([3]; strain ECL UFR195 (TEM-1, CTX-M-15, OXA-1, OXA-48), CLA @ 4 μg/ml+ ATB): > 128 µg/mL | MIC ([3]; strain ECL UFR196 (TEM-1, CTX-M-15, OXA-1, OXA-48), ATB alone): > 128 µg/mL | MIC ([3]; strain ECL UFR196 (TEM-1, CTX-M-15, OXA-1, OXA-48), CLA @ 4 μg/ml+ ATB): > 128 µg/mL | MIC ([3]; strain ECL UFR200 (TEM-1, SHV-12, KPC-2), ATB alone): > 128 µg/mL | MIC ([3]; strain ECL UFR200 (TEM-1, SHV-12, KPC-2), CLA @ 4 μg/ml+ ATB): > 128 µg/mL | MIC ATB in combination ([3]; strain ECL UFR195, antibacterial combined with AF1 @ 4 μg/mL): 256 µg/mL | MIC ATB in combination ([3]; strain ECL UFR197, antibacterial combined with AF1 @ 4 μg/mL): 256 µg/mL
